Reference: paper PMC13091788 (NPJ Aging, 2026)

Legend:
[1] = tested on: high-fat diet (HFD32)-fed mice; experiment: Survival analysis in high-fat diet-fed mice; assay type: in vivo, mouse; settings: 0.5 mg/mL in drinking water from 60 weeks old, HFD32 from 8 weeks of age
Description: For survival analysis under metabolic stress conditions, two-month-old C57BL/6NJcl male mice fed a high-fat diet (HFD 32: water 6.2%, protein 25.5%, fat 32.0%, ash 4.0%, carbohydrate 29.4%, fiber 2.9%, providing 507.6 kcal/100 g; CLEA) were randomly assigned to two groups: tap water only and tap water supplemented with AcA-BRB (0.5 mg/mL).

C2C12 cells = experiment: Mitochondrial morphology analysis (anti-Tom20, MiNA); assay type: cell-based, mouse; settings: C2C12, Q-BRB or AcA-BRB 10 μM, 48 h
Description: Cells were fixed with 4% paraformaldehyde in PBS for 15 min at 37 °C, washed three times with PBS, and permeabilized with 0.1% Triton X-100 in PBS for 10 min at room temperature (RT). After three additional washes with PBS, cells were blocked with 10% bovine serum albumin (BSA) in PBS for 10 min at RT. Cells were incubated with anti-Tom20 primary antibody (1:750 dilution, 11802-1-AP, Proteintech) in PBS containing 5% BSA for 1 h at RT, followed by three PBS washes. Hoechst 33342 (1:2000 dilution) and Alexa Fluor-conjugated secondary antibody (1:500 dilution, A11029, Invitrogen) in PBS containing 5% BSA were applied for 30 min at RT.
After three final PBS washes, cells were mounted with Fluorescent Mounting Medium (S3023, Dako), and imaged using an FV3000 confocal laser scanning microscope (Olympus). Images were acquired as Z-stacks with 0.2 μm intervals and reconstructed into maximum intensity projections using Fiji/ImageJ software.
Mitochondrial morphology was quantified using the MiNA plugin for Fiji (https://imagej.net/plugins/mina). Thirty cells per group were randomly selected for analysis. Average mitochondrial length and other morphological parameters were calculated according to the plugin’s standard analysis pipeline.

[2] = design: method as in PMID 24593257; settings: cited from earlier work

Structure (SMILES) | lifespan compared with control mice [1] | mitochondrial elongation (C2C12 cells) | water solubility (literature) [2]
COc1ccc2cc3[n+](cc2c1O)CCc1cc2c(cc1-3)OCO2 [berberrubine] | significantly prolonged | significantly enhanced | 
COc1ccc2cc3n(cc-2c1=O)CCc1cc2c(cc1-3)OCO2 [Q-BRB, quinoid-type berberrubine] |  |  | water-insoluble
